US11470844B2, “Vespidae wasp repellent” (KINP CO., LTD, priority 2015, dated 2022)

Tests used:
[1] = system: Vespa mandarinia worker; experiment: Spray on Vespa mandarinia worker collecting sawthorn oak sap; format: in vivo, Vespa mandarinia japonica Radoszkowski; settings: 10 workers; for behavior of workers after spraying: immediately started flapping, same time or a few seconds later; for Number of worker Effective / Number of worker No response: sprayed one time, observed up to 1 minute
Experimental: The experiment was conducted on a Vespa mandarinia japonica Radoszkowski worker which flew to a sawthorn oak tree bleeding sap and which collected the sap in Kagawa Prefecture Kinbuchi Forest Park in Takamatsu City Kagawa Prefecture from June to October, 2014 and from June to July, 2015.
Specifically, 100 mL of distilled water was enclosed in a plastic sprayer having a volume of 200 mL to be used as a control sprayer, and 100 mL of benzyl alcohol was enclosed in the same material and the same volume sprayer to be used as a test liquid sprayer. First, distilled water was sprayed one time to one Vespa mandarinia worker which was collecting sap at a sap bleeding part of a trunk of a sawthorn oak tree by using a control sprayer. […] Then, benzyl alcohol was sprayed one time by using a test liquid sprayer. Next, the workers were observed up to 1 minute. With respect to 2-phenylethanol, 3-phenylpropanol, 1-phenyl-2-prpanol and benzyl acetate, the spray test to a Vespa mandarinia worker collecting a sawthorn oak sap was conducted in the same condition.

[2] = system: Apis mellifera worker; settings: in vivo
Experimental: The experiment involving a Apis mellifera worker which was sucking nectar from a flower of Abelia planted at a bank of Noda pond located at Fuseishi-cho, Takamatsu City, Kagawa Prefecture was conducted on Jul. 22 to 24, 2015.
With respect to the experimental condition, first, distilled water was sprayed once on the worker which was sucking nectar or moving from a flower to a flower by using a sprayer, and then the inventors observed the behavior for 30 seconds. Next, benzyl alcohol, 2-phenylethanol or benzyl acetate was sprayed once on the same worker by using the sprayer having the same mass and the same volume, and then the inventors observed the behavior up to 30 seconds. The test liquid was judged to be “effective” in the case where the Apis mellifera worker on which the test liquid was sprayed did different action than normal activity to visit a flower during the observation time.

| Number of worker Effective [2] | Number of worker No response [2] | SMILES | behavior of workers after spraying [1] | Number of worker Effective [1] | Number of worker No response [1] |
| --- | --- | --- | --- | --- | --- |
| – | – | CC(O)Cc1ccccc1 (centres unmarked) [1-Phenyl-2-propanol, 1-phenyl-2-propanol] | flew away from the sap bleeding part | 10/10 | 0/10 |
| – | – | OCCCc1ccccc1 [3-Phenylpropanol, 3-phenylpropanol] | flew away from the sap bleeding part | 10/10 | 0/10 |
| 0/10 | 10/10 | CC(=O)OCc1ccccc1 [Benzyl acetate, benzyl acetate] | flew away from the sap bleeding part | 10/10 | 0/10 |
